For data set [1], the system named is PD patients with constipation. In words: Phase 2 trial, both Stages: adverse events in all dosed patients (n = 44). It counts as in vivo, human.
Experimental: Adverse events were coded using the current version of MedDRA. Severity of AEs were assessed by investigators according to CTCAE (v4.03): Grade 1 is labeled as Mild, Grade 2 as Moderate, and Grade 3 and above as Severe. […] The number (percentage) of subjects who experienced an AE during escalation and fixed dosing periods were summarized by dose level and overall for each stage. The denominator for calculating the percentages were based on the number of subjects ever exposed to each dose and overall.
A further data set deals with αS (Homo sapiens, UniProt P37840). As to conditions: in vitro; cited from earlier work.

As to `CC(C)[C@@H](CC[C@@H](C)[C@H]1CC[C@H]2[C@@H]3[C@H](O)C[C@H]4C[C@@H](NCCCNCCCCN)CC[C@]4(C)[C@H]3CC[C@]12C)OS(=O)(=O)O` (single isomer, unassigned) [squalamine (ENT-01)], the “patients with worsening of hemorrhoids” value in data set [1] (1/44) was determined as 2.2%. In data set [1] (2/44), the “patients with worsening of acid reflux” value was found to be 4.5%. In data set [1] (3/44), this compound registered a patients with flatulence of 6.8% and a patients with vomiting of 6.8%. Further, the patients with dizziness in data set [1] (8/44) came out at 18%. Also, the “patients with abdominal pain” value in data set [1] (11/44) turned out to be 32%. Further, the “effect on formation of aggregates of αS” value on αS is given as “inhibit the formation of aggregates of αS”.
